Measured values: patent publication US9433645B2, “Method and composition for preventing stem cell disruption and aggregation” (R BIO CO., LTD., priority 2012, dated 2016)

Experiments:
Format in all cases: cell-based, human
[1] = test system: adipose tissue-derived mesenchymal stem cells; assay: Survival rate of stem cells suspended in normal saline containing acetylsalicylic acid; settings: for Survival rate: 1.0×10^7 cells
Experimental: After the adipose tissue-derived mesenchymal stem cells isolated in Example 1 were treated with trypsin, the trypsin treated adipose tissue-derived mesenchymal stem cells (1.0×10^7 cells) were suspended in normal saline containing acetylsalicylic acid (Sigma; A5376) at each concentration, and survival rates at 12 and 24 hours were observed. The normal saline containing acetylsalicylic acid was prepared by adding acetylsalicylic acid to normal saline at each concentration and performing sonication at 37 °C for 30 minutes.

[2] = test system: adipose tissue-derived mesenchymal stem cells; assay: FACS characteristics (marker expression rate) of stem cells after suspension in normal saline containing aspirin lysine
Experimental: (§1) After the adipose tissue-derived mesenchymal stem cells isolated in Example 1 were treated with trypsin, the trypsin treated adipose tissue-derived mesenchymal stem cells (1.0×10^6 cells) were suspended in normal saline containing aspirin lysine (Shinpoong) at each concentration and cultured for 5 days, and the number of cells was measured. Then, after cold-temperature storage for 24 hours, FACS was measured, thereby confirming characteristics of the cells.

[3] = test system: adipose tissue-derived mesenchymal stem cells; assay: Survival, number of cells and aggregation of stem cells suspended in normal saline containing aspirin lysine
Experimental: as §1

[4] = FACS, aspirin 0.1 mg/10 ml, after cold-temperature storage for 24 hours

Row | SMILES | Survival rate ([1]; 12 hours, aspirin 1 mg/10 ml normal saline) [%] | Survival rate ([1]; 12 hours, aspirin 2 mg/10 ml normal saline) [%] | Survival rate ([1]; 12 hours, aspirin 5 mg/10 ml normal saline) [%] | Survival rate ([1]; 24 hours, aspirin 1 mg/10 ml normal saline) [%] | Survival rate ([1]; 24 hours, aspirin 2 mg/10 ml normal saline) [%] | Survival rate ([1]; 24 hours, aspirin 5 mg/10 ml normal saline) [%] | Cytotoxic effect ([1]; aspirin added to 10 ml of normal saline 1.0 mg or more) | Expression rate CD29 [2, 4] [%] | Expression rate CD31 [2, 4] [%] | Expression rate CD44 [2, 4] [%] | Expression rate CD45 [2, 4] [%] | Characteristics of the stem cells (FACS) ([2]; stored at a cold temperature for 24 hours after suspension in normal saline containing aspirin for 24 hours) | Change in the number of cells ([3]; after culturing for 5 days) | Cell survival rate depending on the concentration ([3]; normal saline containing aspirin lysine at each concentration) | Aggregation on storage ([3]; storing the stem cells in normal saline containing aspirin)
1 | CC(=O)Oc1ccccc1C(=O)O [acetylsalicylic acid] | 50 | 20 | 10 | 10 | 10 | 5 | a cytotoxic effect was exhibited |  |  |  |  |  |  |  | 
2 | CC(=O)Oc1ccccc1C(=O)O [aspirin lysine] |  |  |  |  |  |  |  | 99.97 | 0.21 | 99.25 | 0.17 | no influence of the concentration of aspirin | almost no change in the number of cells | slightly decreased, but the decrease was not significant | aggregation may be prevented without causing changes in the characteristics of cells
